The source of these data is US20220017863A1, “SIRT2-ABLATED CHIMERIC T CELLS” (H. Lee Moffitt Cancer Center and Research Institute, Inc., priority 2019, published 2022).

Holding throughout (assay type): cell-based
Test [1] has as its system human CD3+ T cells. Nature of the test: IFN-γ ELISPOT on human CD3+ T cells from healthy donors. The settings on record: inhibitor vs vehicle, 48 hr.
Test [2] concerns human CD3+ T cells. Nature of the test: Seahorse extracellular flux analysis of CD3-stimulated human CD3+ T cells from healthy donors. The settings on record: anti-CD3 plus inhibitor vs vehicle, 48 hr. On the procedure: Human peripheral blood mononuclear cells (PBMC) were obtained from healthy donors by density gradient centrifugation using Ficoll-Paque™ PLUS Media (GE Healthcare). CD3^+ lymphocytes were negatively enriched using human Pan T cell isolation Kit™ (Miltenyi Biotec).
Extracellular acidification rates (ECAR) were measured using the Seahorse XF analyzer (Agilent). Glycolysis Stress Test (GST) and glycolytic rate assay (GRA) were performed according to kit manufacturer's instructions.
The day of the assay, 2×10^5 activated T cells were plated in Cell-Tak (Corning)-coated XF96 plates in XF media (XF RPMI Medium pH 7.4 containing 2 mM L-glutamine only for GST or supplemented with 10 mM glucose, 2 mM L-glutamine and 1 mM sodium pyruvate for GRA test, all from Agilent technologies) via centrifugation to ensure cell attachment. Cells were equilibrated for 1 hour in a non-CO2 incubator before starting the assay.
(§1) For GST, ECAR was measured under basal conditions and in response to 10 mM glucose, 1 μM oligomycin and 50 mM 2-DG successively to calculate basal glycolytic rate, glycolytic capacity (in response to oligomycin), and glycolytic reserve (glycolytic capacity−basal rate). For GRA, ECAR was measured under basal conditions and in response to 0.5 μM rotenone+0.5 μM antimycin A and 50 mM 2-DG successively to calculate basal glycolysis and compensatory glycolysis (in response to rotenone+antimycin A). Results were normalized to total protein quantified using Pierce™ BCA Protein Assay Kit (ThermoFisher Scientific).
Human peripheral blood mononuclear cells (PBMC) were obtained from healthy donors by density gradient centrifugation using Ficoll-Paque™ PLUS Media (GE Healthcare). CD3^+ lymphocytes were negatively enriched using human Pan T cell isolation Kit™ (Miltenyi Biotec). […].
Extracellular acidification rate (ECAR) and oxygen consumption rate (OCR) were measured using the Seahorse XF analyzer (Agilent technologies). Glycolysis Stress Test (GST), glycolytic rate assay (GRA) and mitochondrial stress test (MST) were purchased from Agilent technologies and performed according to the kit manufacturer's instructions. […]
For GST, ECAR and OCR were measured under basal conditions and in response to 10 mM glucose, 1 μM oligomycin and 50 mM 2-DG successively to calculate basal glycolytic rate, glycolytic capacity (in response to oligomycin), and glycolytic reserve (glycolytic capacity basal rate).
For GRA, ECAR and OCR were measured under basal conditions and in response to 0.5 μM roteone/antimycin A and 50 mM 2-DG successively to calculate basal glycolysis and compensatory glycolysis (in response to rotenone/antimycin A).

For test [3], the system named is human TILs. The experiment in a line: IFN-γ ELISPOT on human TILs from NSCLC patients. The settings on record: AGK2 vs vehicle, 5 patient samples.
Test [4] concerns human TILs. The experiment in a line: Seahorse extracellular flux analysis of CD3-stimulated human TILs from NSCLC patients. The settings on record: anti-CD3 plus AGK2 vs vehicle, 48 hr. As for the experimental part: Human tumor infiltrating lymphocytes (hTILs) samples isolated from tumor biopsies of patients with nonsmall cell lung cancer (NSCLC) were generously provided by Dr. Antonia lab (Moffitt Cancer Center). All human samples remained totally de-identified and no Institutional Review Board (IRB) approval was needed.
hTILs were maintained in RPMI 1640 Medium, supplemented with 10% human AB serum (Valley Biomedical, Inc.), 1 mM Hepes (Sigma-Aldrich), 1% P/S (Thomas Scientific Inc), 50 μg/ml Gentamicin (ThermoFisher Scientific), 50 μM […] (ThermoFisher Scientific) and 6000 U/ml of recombinant human IL-2 (Peprotech).
Extracellular acidification rates (ECAR) were measured using the Seahorse XF analyzer (Agilent). […]
as §1, with “Scientific). […]” for “Scientific).”

“Also recorded” adds a separate entry of the source.

As for `N#C/C(=C/c1ccc(-c2cc(Cl)ccc2Cl)o1)C(=O)Nc1cccc2ncccc12` [AGK2], the “IFN-γ production (effector function)” value in the test on human CD3+ T cells [1] is listed as “increases; also recorded: augments”. For the same compound, in the test on human CD3+ T cells [2], the OxPhos entry was “increased” and the “aerobic glycolysis (ECAR/PER)” value is “increases; also recorded: augments”. In the test with human TILs [3], the “IFN-γ production (effector function)” value was “increases”. Besides, the “OxPhos (OCR)” value in the test on human TILs [4] (human TILs from 5 NSCLC patients) is reported as “increased”. For the same compound, the “aerobic glycolysis (ECAR)” value in the test on human TILs [4] (human TILs from NSCLC patients, 5 patient samples) is “increases”.
